{"source": "patent US5670521A", "about": "“Reversal of multi-drug resistance by triphenyl-azacycloalkane derivatives” (Merrell Pharmaceuticals Inc., priority 1996, dated 1997)", "test_system": "KBV1 cells", "conditions": "KBV1 vs wild type KB cells", "procedure": "The ability of compounds of this invention to reverse multi drug resistance can be determined using standard test procedures. The ability of the test compounds to inhibit the growth of multidrug resistant human epidermoid carcinoma (KBV1) cells in the presence of both Vinblastine and the compound was determined.", "data": [{"smiles": "CC[C@]1(O)C[C@@H]2CN(CCc3c([nH]c4ccccc34)[C@@](C(=O)OC)(c3cc4c(cc3OC)N(C)[C@H]3[C@@](O)(C(=O)OC)[C@H](OC(C)=O)[C@]5(CC)C=CCN6CC[C@]43[C@@H]65)C2)C1", "note": "[Vinblastine]", "values": [{"measurement": "resistance to vinblastine compared to wild type KB cells", "result": "at least 1,000 times"}]}]}
